{
  "source": "paper PMC10949639",
  "about": "“Engineering Escherichia coli for high-yielding 2,5-Dimethylpyrazine synthesis from L-Threonine by reconstructing metabolic pathways and enhancing cofactors regeneration” (Biotechnology for Biofuels and Bioproducts, 2024)",
  "key": {"[1]": {"molecular_target": "T1, EcTDH (L-threonine dehydrogenase) (Escherichia coli, UniProt P07913)", "T1 construct": "gene tdh; recombinant from pACYCDuet-1 (BamH I/Hind III) in E. coli BL21(DE3); crude lysate supernatant; gene about 1100 bp", "T1 sequence (P07913 1-341)": "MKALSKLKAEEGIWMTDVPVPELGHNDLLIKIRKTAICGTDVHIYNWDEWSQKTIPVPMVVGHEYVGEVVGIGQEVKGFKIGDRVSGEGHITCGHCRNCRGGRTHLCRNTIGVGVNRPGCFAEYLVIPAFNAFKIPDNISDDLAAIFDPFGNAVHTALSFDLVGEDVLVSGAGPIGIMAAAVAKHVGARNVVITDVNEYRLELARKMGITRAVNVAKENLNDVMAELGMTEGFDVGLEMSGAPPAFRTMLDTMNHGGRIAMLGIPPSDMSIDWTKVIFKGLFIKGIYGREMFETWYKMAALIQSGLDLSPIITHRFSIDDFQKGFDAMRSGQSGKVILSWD", "test": "NADH formation at […] nm, lysate supernatant", "assay_type": "biochemical", "conditions": "100 mM Tris-HCl pH 9.0, 100 mM L-threonine, 50 mM NAD+, 30 °C"}, "EhNOX (NADH oxidase)": {"molecular_target": "T2, EhNOX (NADH oxidase) (Enterococcus hirae, UniProt I6S3N3)", "T2 construct": "gene EHR_12315; recombinant from pACYCDuet-1-Ectdh-Ehnox (Nde I/Xho I) in E. coli BL21(DE3), co-expressed with EcTDH; crude lysate supernatant; gene about 1400 bp", "T2 sequence (I6S3N3 1-450)": "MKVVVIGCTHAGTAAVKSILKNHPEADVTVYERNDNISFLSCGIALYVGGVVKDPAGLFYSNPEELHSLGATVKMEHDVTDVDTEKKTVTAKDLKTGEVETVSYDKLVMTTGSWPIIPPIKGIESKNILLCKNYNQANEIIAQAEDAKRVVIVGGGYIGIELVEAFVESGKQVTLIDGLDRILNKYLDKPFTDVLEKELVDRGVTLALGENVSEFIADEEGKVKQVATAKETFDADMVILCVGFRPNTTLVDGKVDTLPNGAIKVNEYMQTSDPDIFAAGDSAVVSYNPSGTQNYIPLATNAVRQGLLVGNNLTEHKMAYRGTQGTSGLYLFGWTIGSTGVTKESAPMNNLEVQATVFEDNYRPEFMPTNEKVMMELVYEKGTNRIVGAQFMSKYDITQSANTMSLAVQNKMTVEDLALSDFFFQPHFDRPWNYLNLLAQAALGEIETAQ", "test": "NADH consumption, lysate supernatant", "assay_type": "biochemical", "conditions": "200 μM NADH, 10 μM FAD, 1 mM dithiothreitol, 20 mM citrate-sodium citrate pH 5.6"}},
  "data": [
    {"smiles": "C[C@@H](O)[C@H](N)C(=O)O", "note": "[L-threonine]", "values": [
      {"measurement": "NADH formation at 340 nm, lysate supernatant", "setting": "[1]", "value": "The enzyme activity of EcTDH was determined using L-threonine as the substrate"}
    ]},
    {"smiles": "NC(=O)C1=CN([C@@H]2O[C@H](COP(=O)(O)OP(=O)(O)OC[C@H]3O[C@@H](n4cnc5c(N)ncnc54)[C@H](O)[C@@H]3O)[C@@H](O)[C@H]2O)C=CC1", "note": "[NADH]", "values": [
      {"measurement": "NADH consumption, lysate supernatant", "setting": "EhNOX (NADH oxidase)", "value": "The enzyme activity of EhNOX was determined using NADH as substrate"}
    ]}
  ]
}
